Marks after values point to notes of the source that are not given here.
Assays:
Assay type in all cases: in vivo
soybean [1] = assay: Sprinkler irrigation field study on soybean yield, deficit vs fully irrigated, Examples 27-28
Excerpt: Testing Procedure: The overall objective was to conduct an irrigation management test to study the effects of fungicides and crop enhancement products on yield, WUE, and disease control under full irrigation and deficit irrigation conditions. This was a sprinkler irrigation field study conducted on a deep silt loam soil. The test was set up to specifically quantify the impact of azoxystrobin and acibenzolar-S-methyl on soybean yield and water productivity of soybean under limited (deficit) and fully-irrigated settings. The study utilized a sprinkler irrigation system. The study was replicated three times in an […]. Irrigation control panels, chemical injection pumps, and filters were housed at the irrigation well house to manage irrigation and chemigation events.
Soil water status was monitored throughout the growing season using soil moisture sensors. Soybean variety NK S31-L7 was planted on May 11, 2011 at the rate of 150,000 seed per acre. Testing parameters, and irrigation levels were conducted according to the University of Nebraska experimental procedure [see e.g., (1) Irmak, et. al.] Moisture levels, irrigation levels, evapotranspiration, and plant health were measured throughout the growing season. Climatic variables were measured (air temperature, rainfall, solar and net radiation, relative humidity, rainfall, wind speed and direction) throughout the season. Irrigation for the fully irrigated treatments was scheduled according to need by a climatic water budget using calculated evapotranspiration as a withdrawal and with rainfall and irrigation as deposits. […] Volumetric soil water content was measured in one-foot increments to a depth of 8 ft on an approximately weekly basis throughout the crop season to determine total water use. Crop water use was calculated as the sum of irrigation, precipitation and changes in soil water between the initial and final soil water sampling dates. Water productivity (WUE) was calculated as the crop yield divided by the seasonal water use (Water Productivity (WP)=Yield/ETc). […]

soybean [2] = assay: Lateral-move sprinkler irrigation field study on soybean, Examples 29-30; details: soybean, sprinkler irrigation
soybean [3] = assay: Sprinkler irrigation field study on soybean yield and WUE, Table 14 (treatments 31-32)
corn [4] = assay: Greenhouse subsurface drip irrigation trial, deficit irrigated, Examples 4-8; details: for % Yield Increase by Product over Untr./50% Irr. / Yield: SDI chemigated at V3/V4, 50% irrigated deficit, Azoxystrobin 261, PPZ 126, TXP 250, PBZ 12.5, TMX 70 gai/ha; for Yield compared with the control, in words: water stress regime (50% irrigated), SDI
Description: (§1) A greenhouse subsurface drip irrigation trial was conducted on corn to evaluate treatment effects on yield in fully irrigated vs. deficit irrigated conditions. In this experiment, standardized growth conditions were applied across all corn treatments including: soil-water availability, soil texture and composition, soil chemical and physical properties, meteorological and environmental parameters, and plant nutrition in a greenhouse. No indication of plant disease or pest damage was observed over the course of the study and no pest management program was necessary. A homogeneous sand-organic matter soil mixture (0.18% organic matter) was used as the growth medium in 55-gal containers. These containers were used as a weighing lysimeter, where daily changes in system weight were used to calculate plant transpiration. Four corn plants were grown in each 55-gal container. Three 55-gal containers (12 plants total) made up each treatment. All irrigation and chemical treatments were applied via sub-surface irrigation. Chemical treatments consisted of: azoxystrobin (Quadris), paclobutrazol (Trimmit), trinexapac-ethyl (Moddus), and propiconazole (Tilt) at maximum labeled rates.
(§2) Corn plants were grown from seed and transplanted in the 55-gal drums approximately 14 days after planting. Uniform adequate irrigation was applied up to growth stage V3/V4 to ensure plant establishment. Chemical treatment applications were applied at growth stage V3/V4 via sub-surface chemigation. At stage V3/V4, irrigation was decreased to replicate deficit water conditions across all treatments for the remainder of the study period. Irrigation was managed daily to maintain 50% plant-available water. Visual signs of abiotic plant stress were observed approximately 30 days after chemical application. All corn plants were grown to yield and cobs were harvested when kernels were uniformly dry (15% moisture content). Root architecture, specifically relative number of fine roots, was measured at within 2 weeks of harvest using a digital imaging technique. Fine roots are related to water uptake productivity, which is directly tied to the ability of the plant to access soil-water under stress.

corn [5] = assay: Greenhouse sub-surface chemigation, yield and root architecture under deficit water, Examples 20-23; details: for Yield (% difference from UTC) / Relative number of fine roots (% difference from UTC): sub-surface chemigation at V3/V4, maximum labeled rates, 50% plant-available water; for Relative number of fine roots (% difference from UTC): within 2 weeks of harvest
Excerpt: as §1, with “In” for “A greenhouse subsurface drip irrigation trial was conducted on corn to evaluate treatment effects on yield in fully irrigated vs. deficit irrigated conditions. In”
as §2

[6] = 60% irrigated deficit, Acibenzolar-S-methyl 10 gai/ha, Azoxy foliar 150 gai/ha + Acibenzolar-S-methyl 10 gai/ha

SMILES	Yield, statistical statement (soybean [1]; 60% Irrigation (deficit))	% Yield Increase over Untr./60% irr. (soybean [1]; [6])	Yield (soybean [1]; [6])	Water productivity, in words (soybean [2])	Yield compared with the untreated, in words (soybean [3]; Azoxystrobin: foliar (2 applications) at 60% & 100% irrigated)	WUE differences, in words (soybean [3]; water deficit regime)	% Yield Increase by Product over Untr./50% Irr. (corn [4])	Yield (corn [4])	Yield compared with the control, in words (corn [4])	Yield (% difference from UTC) (corn [5])	Relative number of fine roots (% difference from UTC) (corn [5])	Yield compared with the control, statistical statement (corn [5]; sub-surface chemigation, abiotic stress, P values <0.001 at the 95th percentile confidence interval)
CSC(=O)c1cccc2nnsc12 [Acibenzolar-S-methyl, acibenzolar-S-methyl]	significant difference in yield	+1% over Untr./60% irr.	53.1 Bu./acre	increase in water productivity	differences in yield over the untreated	Good WUE differences						
CN1COCN(Cc2cnc(Cl)s2)/C1=N\[N+](=O)[O-] [TMX, thiamethoxam]							+4% Incr. over Untr./50% Irr.	1916 Kg/Ha				
CC(C)(C)[C@@H](O)[C@@H](Cc1ccc(Cl)cc1)n1cncn1 (racemic) [PBZ, paclobutrazol]							+16.6% Incr. over Untr./50% Irr.	2152† Kg/Ha	statistically higher than the control	16.6† %	70.0† %	statistically different from the control
CCCC1COC(Cn2cncn2)(c2ccc(Cl)cc2Cl)O1 (stereo not shown) [PPZ, propiconazole]							+3.3% Incr. over Untr./50% Irr.	1906 Kg/Ha	statistically higher than the control	3.3%	39.4† %	

Source: US20140096445A1, “METHOD OF CULTIVATION IN WATER DEFICIT CONDITIONS” (SYNGENTA PARTICIPATIONS AG, priority 2011, published 2014)
